# Source: the NIST ThermoML archive (doi:10.1021/je200788z)
# Numbers after ± are expanded uncertainties.
# Tests used:
# [1] = refractive index (Na D-line) (dimensionless); details: 101.33 kPa, Liquid, Standard Abbe refractometry
# [2] = 101.33 kPa, Liquid; for speed of sound: Sing-around technique in a fixed-path interferometer; for mass density: Vibrating tube method
Compound,refractive index ([1]; 323.15 K),refractive index ([1]; 328.15 K),refractive index ([1]; 333.15 K),refractive index ([1]; 338.15 K),refractive index ([1]; 343.15 K),speed of sound ([2]; 323.15 K),mass density ([2]; 323.15 K),speed of sound ([2]; 328.15 K),mass density ([2]; 328.15 K),speed of sound ([2]; 333.15 K),mass density ([2]; 333.15 K),speed of sound ([2]; 338.15 K),mass density ([2]; 338.15 K),speed of sound ([2]; 343.15 K),mass density ([2]; 343.15 K),refractive index ([1]; 303.15 K),refractive index ([1]; 308.15 K),refractive index ([1]; 313.15 K),refractive index ([1]; 318.15 K),speed of sound ([2]; 303.15 K),also measured
CC(C)COC(=O)CC[C@H]([NH3+])C(=O)OCC(C)C.CCCCCCCCCCCCOS(=O)(=O)[O-],1.4472 ± 0.0011,1.4453 ± 0.0011,1.4432 ± 0.0011,1.4414 ± 0.0011,1.4393 ± 0.0011,1330.6 ± 5 m/s,1014.45 ± 5.6 kg/m3,1314.4 ± 5 m/s,1010.78 ± 5.5 kg/m3,1299.9 ± 5 m/s,1007.13 ± 5.5 kg/m3,1284.2 ± 5 m/s,1003.54 ± 5.4 kg/m3,1270.5 ± 5 m/s,1000 ± 5.4 kg/m3,,,,,,
CC(C)OC(=O)CC[C@H]([NH3+])C(=O)OC(C)C.CCCCCCCCCCCCOS(=O)(=O)[O-],1.4461 ± 0.0011,1.4442 ± 0.0011,1.4429 ± 0.0011,1.441 ± 0.0011,1.4392 ± 0.0011,1295.3 ± 5 m/s,1031.13 ± 5.8 kg/m3,1279.2 ± 5 m/s,1027.46 ± 5.7 kg/m3,1263.5 ± 5 m/s,1023.79 ± 5.7 kg/m3,1248.3 ± 5 m/s,1021.2 ± 5.6 kg/m3,1233.6 ± 5 m/s,1016.44 ± 5.6 kg/m3,1.4528 ± 0.0011,1.4509 ± 0.0011,1.4493 ± 0.0011,1.4476 ± 0.0011,1367.6 ± 5 m/s,refractive index ([1]; 288.15 K): 1.4575 ± 0.0011; refractive index ([1]; 293.15 K): 1.4559 ± 0.0011; refractive index ([1]; 298.15 K): 1.4542 ± 0.0011; speed of sound ([2]; 288.15 K): 1439.7 ± 5.1 m/s; mass density ([2]; 288.15 K): 1057.9 ± 6.1 kg/m3; speed of sound ([2]; 293.15 K): 1412.8 ± 5.1 m/s; mass density ([2]; 293.15 K): 1054.11 ± 6 kg/m3; speed of sound ([2]; 298.15 K): 1389 ± 5 m/s; mass density ([2]; 298.15 K): 1050.31 ± 6 kg/m3; mass density ([2]; 303.15 K): 1046.47 ± 5.9 kg/m3; speed of sound ([2]; 308.15 K): 1347.9 ± 5 m/s; mass density ([2]; 308.15 K): 1042.57 ± 5.9 kg/m3; speed of sound ([2]; 313.15 K): 1329.5 ± 5 m/s; mass density ([2]; 313.15 K): 1038.6 ± 5.8 kg/m3; speed of sound ([2]; 318.15 K): 1312 ± 5 m/s; mass density ([2]; 318.15 K): 1034.81 ± 5.8 kg/m3
CC(C)OC(=O)[C@@H]([NH3+])C(C)C.CCCCCCCCCCCCOS(=O)(=O)[O-],1.445 ± 0.0011,1.4434 ± 0.0011,1.4419 ± 0.0011,1.4403 ± 0.0011,1.4388 ± 0.0011,1317.4 ± 5 m/s,1007.86 ± 5.5 kg/m3,1301.9 ± 5 m/s,1004.37 ± 5.4 kg/m3,1286.6 ± 5 m/s,1000.88 ± 5.4 kg/m3,1270.4 ± 5 m/s,997.39 ± 5.4 kg/m3,1254.9 ± 5 m/s,993.9 ± 5.3 kg/m3,1.4514 ± 0.0011,1.4495 ± 0.0011,1.4483 ± 0.0011,1.4465 ± 0.0011,1382.9 ± 5 m/s,refractive index ([1]; 288.15 K): 1.4555 ± 0.0011; refractive index ([1]; 293.15 K): 1.4541 ± 0.0011; refractive index ([1]; 298.15 K): 1.4527 ± 0.0011; speed of sound ([2]; 288.15 K): 1438.4 ± 5.1 m/s; mass density ([2]; 288.15 K): 1033.35 ± 5.8 kg/m3; speed of sound ([2]; 293.15 K): 1418.5 ± 5.1 m/s; mass density ([2]; 293.15 K): 1029.74 ± 5.7 kg/m3; speed of sound ([2]; 298.15 K): 1400.5 ± 5 m/s; mass density ([2]; 298.15 K): 1026.11 ± 5.7 kg/m3; mass density ([2]; 303.15 K): 1022.44 ± 5.7 kg/m3; speed of sound ([2]; 308.15 K): 1365.9 ± 5 m/s; mass density ([2]; 308.15 K): 1018.71 ± 5.6 kg/m3; speed of sound ([2]; 313.15 K): 1349.4 ± 5 m/s; mass density ([2]; 313.15 K): 1014.93 ± 5.6 kg/m3; speed of sound ([2]; 318.15 K): 1333.2 ± 5 m/s; mass density ([2]; 318.15 K): 1011.36 ± 5.5 kg/m3
CC(C)COC(=O)C[NH3+].CCCCCCCCCCCCOS(=O)(=O)[O-] [2-isobutoxy-2-oxoethan-1-aminium dodecyl sulfate],1.4494 ± 0.0011,1.4462 ± 0.0011,1.443 ± 0.0011,1.4397 ± 0.0011,1.4365 ± 0.0011,1307.6 ± 5 m/s,998.71 ± 5.4 kg/m3,1292.5 ± 5 m/s,995.15 ± 5.3 kg/m3,1277.6 ± 5 m/s,991.89 ± 5.3 kg/m3,1263 ± 5 m/s,988.22 ± 5.3 kg/m3,1248.7 ± 5 m/s,984.53 ± 5.2 kg/m3,1.4624 ± 0.0011,1.4592 ± 0.0011,1.456 ± 0.0011,1.4527 ± 0.0011,1372.1 ± 5 m/s,mass density ([2]; 303.15 K): 1013.62 ± 5.5 kg/m3; speed of sound ([2]; 308.15 K): 1355.2 ± 5 m/s; mass density ([2]; 308.15 K): 1009.88 ± 5.5 kg/m3; speed of sound ([2]; 313.15 K): 1339 ± 5 m/s; mass density ([2]; 313.15 K): 1006.14 ± 5.5 kg/m3; speed of sound ([2]; 318.15 K): 1323 ± 5 m/s; mass density ([2]; 318.15 K): 1002.38 ± 5.4 kg/m3
CC(C)OC(=O)C[NH3+].CCCCCCCCCCCCOS(=O)(=O)[O-] [2-isopropoxy-2-oxoethan-1-aminium dodecyl sulfate],1.4529 ± 0.0011,1.4497 ± 0.0011,1.4465 ± 0.0011,1.4441 ± 0.0011,1.4414 ± 0.0011,1305 ± 5 m/s,1010.65 ± 5.5 kg/m3,1289.6 ± 5 m/s,1007.14 ± 5.5 kg/m3,1274.6 ± 5 m/s,1003.63 ± 5.4 kg/m3,1259.9 ± 5 m/s,1000.12 ± 5.4 kg/m3,1245.8 ± 5 m/s,996.58 ± 5.4 kg/m3,1.463 ± 0.0011,1.4603 ± 0.0011,1.4576 ± 0.0011,1.4549 ± 0.0011,1373.4 ± 5 m/s,mass density ([2]; 303.15 K): 1025.14 ± 5.7 kg/m3; speed of sound ([2]; 308.15 K): 1355.1 ± 5 m/s; mass density ([2]; 308.15 K): 1021.37 ± 5.6 kg/m3; speed of sound ([2]; 313.15 K): 1337.6 ± 5 m/s; mass density ([2]; 313.15 K): 1017.68 ± 5.6 kg/m3; speed of sound ([2]; 318.15 K): 1320.9 ± 5 m/s; mass density ([2]; 318.15 K): 1014.16 ± 5.5 kg/m3
